Consider one molecule from PMC3971658 (The Journal of General Physiology, 2014).

Each structure is given as a SMILES string.

In experiment [1] the test system is Rabbit Cav2.1. Type of experiment: cell-based. Conditions: 50 µM.
In experiment [2] the test system is R-type current, rat DRG neurons. Type of experiment: cell-based.
Experiment [3] has as its system c-Src / human Cav2.1 channel and GABABR. Type of experiment: cell-based.
In experiment [4] the test system is human Cav2.3c (α1E-c) channel alone. The format is cell-based. The note with it: 50 µM.
Experiment [5] deals with Human Cav2.3c. Type of experiment: cell-based. Conditions: 50 µM.
For experiment [6], the system named is human Cav2.1 (α1A-2) channel alone. The format is cell-based. The note with it: 50 µM.
The subject of experiment [7] is human Cav2.3c channel and GABABR.
In experiment [8] the test system is Human Cav2.1. Type of experiment: cell-based. The note with it: 50 µM.
The subject of experiment [9] is Human Cav2.3d. Type of experiment: cell-based. Conditions: 50 µM.
Experiment [10] concerns R-type current, thalamocortical neurons. Conditions: cited from earlier work.

For `NCC(CC(=O)O)c1ccc(Cl)cc1` (stereo not shown) [Baclofen, baclofen], the IBa inhibition entry is recorded as “^#50.0 ± 5.0 (8) %” in experiment [1]; 0 (6) % in experiment [4]; 44.0 ± 3.0 (10) % in [5]; 0 (5) % in [6]; 44.4 ± 1.9 (9) % in experiment [8]; 33.1 ± 1.8 (8) % in experiment [9]. In experiment [2], the R-type current inhibition entry is on record as “R-type current inhibition by baclofen”. For the same molecule, in [3], the “baclofen inhibition of IBa with wild-type c-Src overexpression or pp60c-Src peptide” value is “did not affect baclofen inhibition of IBa”. The “V0.5,act” value in experiment [7] is −3.44 ± 0.67 mV. Further, the R-type current modulation result in experiment [10] is given as “R-type current modulation by baclofen has been demonstrated”.
